According to ChEMBL document CHEMBL2163210, “Aryl Piperazinyl Ureas as Inhibitors of Fatty Acid Amide Hydrolase (FAAH) in Rat, Dog, and Primate” (ACS Med Chem Lett, 2012):
One block for each compound: values may come before it. The source made the active and inactive calls. The calls are words filed in the database; no cut-off is given here.

Experiments:
[1] = target: T1, Fatty-acid amide hydrolase 1 (Rattus norvegicus, UniProt P97612)
T1 sequence (P97612 whole entry): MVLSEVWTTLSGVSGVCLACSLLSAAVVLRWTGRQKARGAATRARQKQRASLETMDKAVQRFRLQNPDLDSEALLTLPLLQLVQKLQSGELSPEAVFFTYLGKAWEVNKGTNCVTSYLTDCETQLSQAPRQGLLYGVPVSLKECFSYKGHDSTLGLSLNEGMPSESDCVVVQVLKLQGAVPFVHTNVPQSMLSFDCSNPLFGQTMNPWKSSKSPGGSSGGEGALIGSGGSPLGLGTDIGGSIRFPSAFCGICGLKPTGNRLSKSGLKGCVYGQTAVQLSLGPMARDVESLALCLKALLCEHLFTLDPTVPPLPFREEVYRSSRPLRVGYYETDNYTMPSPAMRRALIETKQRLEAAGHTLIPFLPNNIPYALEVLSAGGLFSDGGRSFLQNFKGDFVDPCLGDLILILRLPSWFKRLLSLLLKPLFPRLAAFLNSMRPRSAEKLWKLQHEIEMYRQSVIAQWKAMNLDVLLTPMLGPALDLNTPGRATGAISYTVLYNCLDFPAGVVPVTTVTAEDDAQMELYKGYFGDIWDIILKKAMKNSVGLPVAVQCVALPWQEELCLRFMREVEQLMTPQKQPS
Description: Inhibition of rat FAAH after 1 hr

[2] = target: T2, Fatty-acid amide hydrolase 1 (Homo sapiens, UniProt O00519); assay: Inhibition of human FAAH after 1 hr
T2 sequence (O00519 whole entry): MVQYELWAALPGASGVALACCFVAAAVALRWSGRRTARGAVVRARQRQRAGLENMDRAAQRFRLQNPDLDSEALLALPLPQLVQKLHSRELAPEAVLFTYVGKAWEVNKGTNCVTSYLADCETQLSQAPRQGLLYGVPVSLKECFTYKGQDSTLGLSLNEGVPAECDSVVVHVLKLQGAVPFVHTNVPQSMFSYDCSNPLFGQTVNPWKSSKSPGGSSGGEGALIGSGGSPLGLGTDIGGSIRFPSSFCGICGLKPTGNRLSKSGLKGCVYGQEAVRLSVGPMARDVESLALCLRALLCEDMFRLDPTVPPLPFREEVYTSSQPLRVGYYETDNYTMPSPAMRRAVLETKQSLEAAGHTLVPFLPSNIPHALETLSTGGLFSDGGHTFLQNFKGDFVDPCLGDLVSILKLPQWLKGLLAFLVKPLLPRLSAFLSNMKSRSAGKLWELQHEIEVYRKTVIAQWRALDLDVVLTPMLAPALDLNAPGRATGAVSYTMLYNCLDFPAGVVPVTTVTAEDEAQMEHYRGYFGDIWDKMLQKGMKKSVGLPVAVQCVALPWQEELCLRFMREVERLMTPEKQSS

[3] = target: T3, Fatty-acid amide hydrolase 2 (Homo sapiens, UniProt Q6GMR7); assay: Inhibition of FAAH2
T3 sequence (Q6GMR7 whole entry): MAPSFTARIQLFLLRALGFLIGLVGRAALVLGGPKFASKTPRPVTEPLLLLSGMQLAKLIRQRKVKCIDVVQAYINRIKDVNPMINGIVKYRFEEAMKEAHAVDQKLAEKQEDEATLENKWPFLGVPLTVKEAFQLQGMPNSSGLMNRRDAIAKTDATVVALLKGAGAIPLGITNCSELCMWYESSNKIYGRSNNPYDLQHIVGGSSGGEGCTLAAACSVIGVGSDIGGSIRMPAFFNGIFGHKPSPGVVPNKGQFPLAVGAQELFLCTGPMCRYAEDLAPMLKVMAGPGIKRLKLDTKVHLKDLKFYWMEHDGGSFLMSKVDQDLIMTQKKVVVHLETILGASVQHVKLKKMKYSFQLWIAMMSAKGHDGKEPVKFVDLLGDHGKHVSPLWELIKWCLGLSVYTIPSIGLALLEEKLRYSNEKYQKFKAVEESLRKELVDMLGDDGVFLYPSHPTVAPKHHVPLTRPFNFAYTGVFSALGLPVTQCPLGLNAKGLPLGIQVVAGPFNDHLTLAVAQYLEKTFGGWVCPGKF

[4] = target: T2, Fatty-acid amide hydrolase 1; assay: Inhibition of human FAAH
[5] = target: T1, Fatty-acid amide hydrolase 1; assay: Inhibition of rat FAAH
Rattus norvegicus [6] = organism: Rattus norvegicus; details: 3 mg/kg
Description: Inhibition of FAAH in rat at 3 mg/kg, po at 48 hrs

Rattus norvegicus [7] = organism: Rattus norvegicus; details: 3 mg/kg; remark: listed apart in the source
Description: Inhibition of FAAH in rat at 3 mg/kg, po at 24 hrs

Canis familiaris [8] = assay: Inhibition of Beagle dog FAAH assessed as increase in plasma anandamide level at 1 mg/kg, iv and 5 mg/kg, po at 2 to 3 hrs relative to control; assay type: functional, Canis lupus familiaris
[9] = Oral bioavailability in rat at 0.3 to 10 mg/kg; assay type: ADME, organism-based; details: in vivo
Rattus norvegicus [10] = assay: Volume of distribution at steady state in rat at 0.3 to 10 mg/kg, po; assay type: ADME, organism-based; parameters: dose 0.3-10 mg/kg, route oral; details: in vivo
[11] = Clearance in cynomolgus monkey at 1 mg/kg, iv and 5 mg/kg, po; assay type: ADME, organism-based, Macaca fascicularis; details: in vivo
[12] = Clearance in rat at 0.3 to 10 mg/kg, po; assay type: ADME, organism-based; parameters: dose 0.3-10 mg/kg, route oral; details: in vivo
Cynomolgus monkey [13] = assay: Inhibition of cynomolgus monkey FAAH assessed as increase in plasma N-oleoylethanolamide level at 1 mg/kg, iv at 4 hrs relative to control; assay type: functional; details: Macaca fascicularis
[14] = Plasma concentration in rat at 3 mg/kg, po at 4 hrs; assay type: ADME, organism-based; parameters: dose 3 mg/kg, route oral
Canis familiaris [15] = assay: Inhibition of Beagle dog FAAH assessed as increase in plasma N-oleoylethanolamide level at 1 mg/kg, iv and 5 mg/kg, po at 2 to 3 hrs relative to control; assay type: functional, Canis lupus familiaris
Rattus norvegicus [16] = assay: Inhibition of FAAH in rat at 3 mg/kg, po at 12 hrs; assay type: functional
Brain = assay: Drug uptake in po dosed rat brain; assay type: ADME, organism-based; details: in vivo
Rattus norvegicus [17] = assay: Inhibition of rat FAAH assessed as increase in plasma N-palmitoylethanolamide level at 3 mg/kg, po at 4 hrs relative to control; assay type: functional
[18] = Plasma concentration in rat at 3 mg/kg, po at 12 hrs; assay type: ADME, organism-based; parameters: dose 3 mg/kg, route oral
Plasma = assay: Drug uptake in po dosed rat plasma; assay type: ADME, organism-based; details: in vivo
[19] = Volume of distribution at steady state in cynomolgus monkey at 1 mg/kg, iv and 5 mg/kg, po; assay type: ADME, organism-based, Macaca fascicularis; details: in vivo, read-out: Vdss
Canis familiaris [20] = assay: Inhibition of Beagle dog FAAH assessed as increase in plasma N-palmitoylethanolamide level at 1 mg/kg, iv and 5 mg/kg, po at 6 to 8 hrs relative to control; assay type: functional, Canis lupus familiaris
[21] = Apparent volume of distribution in Beagle dog at 1 mg/kg, iv and 5 mg/kg, po; assay type: ADME, organism-based, Canis lupus familiaris; details: in vivo, read-out: Vz
Rattus norvegicus [22] = assay: Inhibition of rat FAAH assessed as increase in brain N-palmitoylethanolamide level at 10 mg/kg, po at 4 hrs relative to control; assay type: functional
Rattus norvegicus [23] = assay: Inhibition of rat FAAH assessed as increase in plasma anandamide level at 3 mg/kg, po at 4 hrs relative to control; assay type: functional
[24] = Plasma concentration in rat at 3 mg/kg, po at 24 hrs; assay type: ADME, organism-based; parameters: dose 3 mg/kg, route oral
[25] = Oral bioavailability in Beagle dog at 5 mg/kg; assay type: ADME, organism-based, Canis lupus familiaris; details: in vivo
[26] = Ratio of drug level in brain to plasma in rat at 0.3 to 10 mg/kg, po; assay type: ADME, organism-based; parameters: dose 0.3-10 mg/kg, route oral; details: read-out: BPR
[27] = Clearance in Beagle dog at 1 mg/kg, iv and 5 mg/kg, po; assay type: ADME, organism-based, Canis lupus familiaris; details: in vivo
[28] = Plasma concentration in rat at 3 mg/kg, po at 6 hrs; assay type: ADME, organism-based; parameters: dose 3 mg/kg, route oral
[29] = Oral bioavailability in cynomolgus monkey at 5 mg/kg; assay type: ADME, organism-based, Macaca fascicularis; details: in vivo
Rattus norvegicus [30] = assay: Inhibition of rat FAAH assessed as increase in brain N-oleoylethanolamide level at 10 mg/kg, po at 4 hrs relative to control; assay type: functional
Cynomolgus monkey [31] = assay: Inhibition of cynomolgus monkey FAAH assessed as increase in plasma N-palmitoylethanolamide level at 1 mg/kg, iv at 4 hrs relative to control; assay type: functional; details: Macaca fascicularis
Cynomolgus monkey [32] = assay: Inhibition of cynomolgus monkey FAAH assessed as increase in plasma anandamide level at 1 mg/kg, iv at 4 hrs relative to control; assay type: functional; details: Macaca fascicularis
Rattus norvegicus [33] = assay: Inhibition of rat FAAH assessed as increase in brain anandamide level at 10 mg/kg, po at 4 hrs relative to control; assay type: functional
Rattus norvegicus [34] = assay: Apparent volume of distribution in rat at 0.3 to 10 mg/kg, po; assay type: ADME, organism-based; parameters: dose 0.3-10 mg/kg, route oral; details: in vivo
[35] = Apparent volume of distribution in cynomolgus monkey at 1 mg/kg, iv and 5 mg/kg, po; assay type: ADME, organism-based, Macaca fascicularis; details: in vivo, read-out: Vz
Rattus norvegicus [36] = assay: Inhibition of rat FAAH assessed as increase in plasma N-oleoylethanolamide level at 3 mg/kg, po at 4 hrs relative to control; assay type: functional
[37] = Volume of distribution at steady state in Beagle dog at 1 mg/kg, iv and 5 mg/kg, po; assay type: ADME, organism-based, Canis lupus familiaris; details: in vivo, read-out: Vdss

Compound: O=C(Nc1ccccc1)N1CCN(Cc2cccc(Cl)c2)CC1
IC50 [1]: 5600 nM
IC50 [2]: 840 nM

Compound: N#Cc1cccc(CN2CCN(C(=O)Nc3ccccc3)CC2)c1
IC50 [2]: 6670 nM

Compound: O=C(Nc1cccnc1)N1CCC(Cc2cccc(Oc3ccc(C(F)(F)F)cn3)c2)CC1
IC50 [3]: > 10000 nM

Compound: COc1cc(Br)cc(CN2CCN(C(=O)Nc3ccccc3)CC2)c1O
IC50 [4]: 120 nM
IC50 [5]: 243 nM

Compound: O=C(Nc1cccnc1)N1CCN(Cc2cccc(Oc3ccc(Cl)cc3)c2)CC1 [listing 1 of 2 here]
inhibition (Rattus norvegicus [6]): inactive
inhibition (Rattus norvegicus [7]): inactive

Compound: O=C(Nc1cccnc1)N1CCN(Cc2cccc(Oc3ccc(Cl)cc3)c2)CC1 [listing 2 of 2 here]
fold change (FC) (Canis familiaris [8]): >30
bioavailability [9]: 53%
Vdss (Rattus norvegicus [10]): 3.2 L/kg
clearance [11]: 25.3 mL/min/kg
CL/F [12]: 11.5 mL/min/kg
inhibition in vivo at 1 mg/kg (Cynomolgus monkey [13]): 150%
concentration at 4 h [14]: 800 nM
fold change (FC) (Canis familiaris [15]): >30
IC50 [3]: > 10000 nM
inhibition in vivo at 3 mg/kg (Rattus norvegicus [16]): 90%
Drug uptake (Brain): Dose-dependent effect
fold change (FC) (Rattus norvegicus [17]): 2.25
concentration at 12 h [18]: 200 nM
Cp (Plasma): Dose-dependent effect
Vd [19]: 1.89 L/kg
fold change (FC) (Canis familiaris [20]): >30
Vd [21]: 1.4 L/kg
fold change (FC) (Rattus norvegicus [22]): 3.7
fold change (FC) (Rattus norvegicus [23]): 3
concentration at 24 h [24]: 15 nM
bioavailability [25]: 39%
Kp [26]: 2.62
clearance [27]: 38.3 mL/min/kg
concentration at 6 h [28]: 600 nM
bioavailability [29]: 62%
fold change (FC) (Rattus norvegicus [30]): 3.25
inhibition in vivo at 1 mg/kg (Cynomolgus monkey [31]): 150%
inhibition in vivo at 1 mg/kg (Cynomolgus monkey [32]): 300%
fold change (FC) (Rattus norvegicus [33]): 1.75
Vz (Rattus norvegicus [34]): 8.3 L/kg
Vd [35]: 2.18 L/kg
fold change (FC) (Rattus norvegicus [36]): 1.9
Vd [37]: 1.24 L/kg

The remaining compounds from weak to strong by IC50 [2], led by results:

IC50 [2]: 490 nM
Compound: COc1ccc(CN2CCN(C(=O)Nc3ccccc3)CC2)cc1

IC50 [1]: 830 nM
IC50 [2]: 350 nM
Compound: O=C(Nc1ccccc1)N1CCN(Cc2cccc(C(F)(F)F)c2)CC1

IC50 [1]: 2670 nM
IC50 [2]: 128 nM
Compound: O=C(Nc1ccccc1)N1CCN(Cc2ccc(Cl)cc2)CC1

IC50 [1]: 6670 nM
IC50 [2]: 74 nM
Compound: O=C(Nc1ccccc1)N1CCN(Cc2cccc(Oc3ccccc3)c2)CC1

IC50 [1]: 1500 nM
IC50 [2]: 41 nM
Compound: O=C(Nc1ccncn1)N1CCN(Cc2cccc(Oc3ccc(Cl)cc3)c2)CC1

IC50 [1]: 520 nM
IC50 [2]: 15 nM
Compound: O=C(Nc1ccncc1)N1CCN(Cc2cccc(Oc3ccc(Cl)cc3)c2)CC1

IC50 [1]: 470 nM
IC50 [2]: 12 nM
Compound: O=C(Nc1ccccn1)N1CCN(Cc2cccc(Oc3ccc(Cl)cc3)c2)CC1

IC50 [1]: 640 nM
IC50 [2]: 11 nM
Compound: Cc1ccc(Oc2cccc(CN3CCN(C(=O)Nc4ccccc4)CC3)c2)cc1
